Results taken from US4179441A, “Fungidal and herbicidal 2-substituted-3-oxa-3aλ^4, 4-dithia-6-halo-1,5-diazapentalene” (Chevron Research Company, priority 1977, dated 1979).

Assays:
[1] = test system: Mustard (Brassica arvensis); assay: Post-emergent herbicidal test; assay type: in vivo; settings: 0-to-100 scale
Septoria apii = settings: in vivo
Erysiphe polygoni = assay: Powdery Mildew (bean seedlings); assay type: in vivo; settings: 240 h, 250 ppm spray on bean seedlings, about 10 days, relative to untreated check plants
Source text: The powdery mildew test was made using bean seedlings (var. Bountiful) with well-developed primary leaves. The pathogen was Erysiphe polygoni. The bean seedlings were sprayed with a 250 ppm solution of the test compound in an acetone-water mixture containing a nonionic emulsifier. The treated plants were inoculated one day after spray application of the test compound with the pathogen. […] The rate of infection on the leaves was made after about 10 days. The percent disease control provided by a given test compound was based on the disease reduction relative to untreated check plants.

[2] = test system: Lambsquarter (Chenopodium album); assay: Post-emergent herbicidal test; assay type: in vivo; settings: 0-to-100 scale
Wild Oats (Avena fatua) [3] = assay: Post-emergent herbicidal test; assay type: in vivo; settings: 0-to-100 scale
[4] = test system: Crabgrass (Digitaria sanguinalis); assay: Post-emergent herbicidal test; assay type: in vivo; settings: 0-to-100 scale
[5] = test system: Mustard (Brassica arvensis); assay: Pre-Emergent herbicidal test; assay type: in vivo; settings: 33 micrograms/cm^2, 3 weeks, 0-to-100 scale, 100 = complete kill
Protocol: (§1) Pre-emergent herbicidal tests on representative compounds of the invention were made using the following method:
(§2) An acetone solution of the test compound was prepared by mixing 750 mg of the compound, 220 mg of a nonionic surfactant and 25 ml of acetone. This solution was added to approximately 125 ml of water containing 156 mg of surfactant.
(§3) Seeds of the test vegetation were planted in a pot of soil and the test solution was sprayed uniformly onto the soil surface at a dose of 33 micrograms/cm^2. The pot was watered and placed in a greenhouse. […] At the end of this period, the herbicidal effectiveness of the compound was rated based on the physiological observations. A 0-to-100 scale was used, 0 representing no phytotoxicity, 100 representing complete kill.

[6] = test system: Lambsquarter (Chenopodium album); assay: Pre-Emergent herbicidal test; assay type: in vivo; settings: 33 micrograms/cm^2, 3 weeks, 0-to-100 scale, 100 = complete kill
Protocol: as §1, §2, §3

[7] = test system: Watergrass (Echinochloa crusgalli); assay: Pre-Emergent herbicidal test; assay type: in vivo; settings: 33 micrograms/cm^2, 3 weeks, 0-to-100 scale, 100 = complete kill
Protocol: as §1, §2, §3

[8] = test system: Crabgrass (Digitaria sanguinalis); assay: Pre-Emergent herbicidal test; assay type: in vivo; settings: 33 micrograms/cm^2, 3 weeks, 0-to-100 scale, 100 = complete kill
Protocol: as §1, §2, §3

Wild Oats (Avena fatua) [9] = assay: Pre-Emergent herbicidal test; assay type: in vivo; settings: 33 micrograms/cm^2, 3 weeks, 0-to-100 scale, 100 = complete kill
Protocol: as §1, §2, §3

[10] = test system: Watergrass (Echinochloa crusgalli); assay: Post-emergent herbicidal test; assay type: in vivo; settings: 0-to-100 scale

Cc1cc(Cl)ccc1OCC1=NC2=S(O1)SN=C2Cl (stereo not drawn) [Compound 19]
Herbicidal Effectiveness - Post, M [1]: 100 | Celery Late Blight % Control (Septoria apii): 92% | pest or weed control at 250 ppm (Erysiphe polygoni): 57% | Herbicidal Effectiveness - Post, L [2]: 95 | Herbicidal Effectiveness - Post, O (Wild Oats (Avena fatua) [3]): 10 | Herbicidal Effectiveness - Post, C [4]: 0 | Herbicidal Effectiveness - Pre, M [5]: 100 | Herbicidal Effectiveness - Pre, L [6]: 100 | Herbicidal Effectiveness - Pre, W [7]: 75 | Herbicidal Effectiveness - Pre, C [8]: 85 | Herbicidal Effectiveness - Pre, O (Wild Oats (Avena fatua) [9]): 35 | Herbicidal Effectiveness - Post, W [10]: 40
